Legend:
[1] = biological target: T1, GlmU (Escherichia coli, UniProt P0ACC7); assay: surface plasmon resonance, immobilised His-tagged GlmU, […] equilibrium affinity; type: binding; conditions: read-out: equilibrium dissociation constant
T1 construct: full-length in pET28a, His-tag kept; expressed in E. coli BL21(DE3)

[2] = biological target: T2, MadA^C (Escherichia coli, UniProt P0ADQ2); assay: malonyl-CoA decarboxylase assay, HPLC; type: biochemical; conditions: 0.1 M Tris pH 7, 0.2 M NaCl, 37 °C; given for the Mad proteins collectively
T2 construct: gene fabY; C-terminal hot dog domain, residues 171-329, His6-tag cleaved by thrombin, dimer; expressed in E. coli BL21(DE3)
T2 sequence (P0ADQ2 171-329): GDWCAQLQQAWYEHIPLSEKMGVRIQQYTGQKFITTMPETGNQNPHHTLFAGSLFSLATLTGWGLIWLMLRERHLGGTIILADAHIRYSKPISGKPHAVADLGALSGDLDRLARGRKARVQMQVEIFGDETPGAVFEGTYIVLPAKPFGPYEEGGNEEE

[3] = biological target: T3, MadB (Shewanella oneidensis, UniProt Q8E989, S54A); assay: malonyl-CoA decarboxylase assay, HPLC; type: biochemical; conditions: 4 mM malonyl-CoA, 0.1 M Tris pH 7, 0.2 M NaCl, 37 °C
T3 construct: gene yiiD
T3 sequence (Q8E989 entry or part of it S54A): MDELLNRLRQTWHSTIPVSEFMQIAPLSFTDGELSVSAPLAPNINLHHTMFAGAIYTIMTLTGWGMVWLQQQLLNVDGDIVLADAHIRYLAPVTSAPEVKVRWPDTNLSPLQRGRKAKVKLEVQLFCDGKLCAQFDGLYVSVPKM

[4] = biological target: T4, MadB (Shewanella oneidensis, UniProt Q8E989, D79A); assay: malonyl-CoA decarboxylase assay, HPLC; type: biochemical; conditions: 4 mM malonyl-CoA, 0.1 M Tris pH 7, 0.2 M NaCl, 37 °C
T4 construct: gene yiiD
T4 sequence (Q8E989 entry or part of it D79A): as the sequence (Q8E989 entry or part of it S54A) above, with A54S, D79A counted along it

[5] = biological target: T5, MadB (Shewanella oneidensis, UniProt Q8E989); assay: malonyl-CoA decarboxylase assay, HPLC; type: biochemical; conditions: 0.1 M Tris pH 7, 0.2 M NaCl, 37 °C; given for the Mad proteins collectively
T5 construct: gene yiiD
T5 sequence (Q8E989 1-145): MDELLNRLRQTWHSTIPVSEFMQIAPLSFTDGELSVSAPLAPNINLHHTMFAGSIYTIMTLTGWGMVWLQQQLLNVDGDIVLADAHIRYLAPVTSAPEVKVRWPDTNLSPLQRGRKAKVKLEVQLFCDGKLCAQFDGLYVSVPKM

[6] = biological target: T6, MadA (Escherichia coli, UniProt P0ADQ2, M17A); assay: malonyl-CoA decarboxylase assay, HPLC; type: biochemical; conditions: 0.1 M Tris pH 7, 0.2 M NaCl, 37 °C; given for the Mad proteins collectively
T6 construct: gene fabY; full-length GNAT-hot dog protein, dimer, pET28a His-tag, M17A to remove second start site; expressed in E. coli BL21(DE3)
T6 sequence (P0ADQ2 whole entry M17A): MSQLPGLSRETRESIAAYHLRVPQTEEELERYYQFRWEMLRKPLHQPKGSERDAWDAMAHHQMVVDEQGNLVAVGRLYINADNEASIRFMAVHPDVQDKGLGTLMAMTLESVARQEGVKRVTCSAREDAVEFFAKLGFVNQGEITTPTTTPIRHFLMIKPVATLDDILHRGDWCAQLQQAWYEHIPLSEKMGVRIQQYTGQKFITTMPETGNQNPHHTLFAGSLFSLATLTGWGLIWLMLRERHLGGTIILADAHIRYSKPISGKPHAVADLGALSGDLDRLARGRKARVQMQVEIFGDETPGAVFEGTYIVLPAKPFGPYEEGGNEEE

T1 sequence (P0ACC7 whole entry): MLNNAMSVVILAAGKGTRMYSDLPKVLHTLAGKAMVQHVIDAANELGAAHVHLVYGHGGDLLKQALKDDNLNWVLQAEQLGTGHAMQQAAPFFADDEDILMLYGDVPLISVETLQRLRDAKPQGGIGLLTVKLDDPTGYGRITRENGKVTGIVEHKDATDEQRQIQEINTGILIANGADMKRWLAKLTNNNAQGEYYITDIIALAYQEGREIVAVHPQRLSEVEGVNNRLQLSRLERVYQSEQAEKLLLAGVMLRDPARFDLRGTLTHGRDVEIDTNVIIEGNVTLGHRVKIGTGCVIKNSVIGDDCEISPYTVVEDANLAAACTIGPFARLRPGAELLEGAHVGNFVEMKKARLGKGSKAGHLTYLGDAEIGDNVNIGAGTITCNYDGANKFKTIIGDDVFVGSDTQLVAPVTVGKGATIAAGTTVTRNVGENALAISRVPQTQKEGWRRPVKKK

Row | Kd [1] [µM] | Km [2] [mM] | Km [5] [mM] | Km [6] [mM] | SMILES | malonyl-CoA decarboxylase assay, HPLC [3] | malonyl-CoA decarboxylase assay, HPLC [4]
1 | 967 ± 48.3 | – | – | – | CC(=O)SCCNC(=O)CCNC(=O)[C@H](O)C(C)(C)COP(=O)(O)OP(=O)(O)OC[C@H]1O[C@@H](n2cnc3c(N)ncnc32)[C@H](O)[C@@H]1OP(=O)(O)O [acetyl-CoA] | – | –
2 | – | > 5 | > 5 | > 5 | CC(C)(COP(=O)(O)OP(=O)(O)OC[C@H]1O[C@@H](n2cnc3c(N)ncnc32)[C@H](O)[C@@H]1OP(=O)(O)O)[C@@H](O)C(=O)NCCC(=O)NCCSC(=O)CC(=O)O [malonyl-CoA] | The MadB(S54A) and MadB(D79A) mutants had nearly normal malonyl-CoA decarboxylase activity | The MadB(S54A) and MadB(D79A) mutants had nearly normal malonyl-CoA decarboxylase activity

Source: publication PMC8666670, “Malonyl-acyl carrier protein decarboxylase activity promotes fatty acid and cell envelope biosynthesis in Proteobacteria” (The Journal of Biological Chemistry, 2021)
